In patent publication US20230265091A1, “COMPOUNDS WHICH INHIBIT RNA POLYMERASE” (The Johns Hopkins University, priority 2020, published 2023):
Where a name gives a salt, the structure may show the parent alone.

What follows are molecules tested on RPA194 (RNA polymerase I, Pol I) (assay: RPA194 destruction / Pol I inhibition, high-content imaging in A375 cells). Settings: A375 cells treated for 4 hours, top concentration 10 μM; anti-RPA194 immunofluorescence; pIC50 >= 5.02 deemed a Pol I inhibitor.
Format: cell-based
Procedure: Cell culture: A375 cells (CRL-1619, ATCC) were grown in DMEM (GTBCO) supplemented with […] fetal bovine serum (GIBCO) in 5% CO2 at 37° C.
Cell treatment and Imaging: 18 hours post-seeding in cell carrier black 384-well plates (PerkinElmer) at 15 000 cells/well, A375 cells were treated for 4 hours with a positive control or test compounds (9 serial semi-log dilutions, top concentration 10 μM). Upon treatment A375 cells were (i) fixed for 15 min at RT with 4% of paraformaldehyde, (ii) permeabilized for 20 min at RT with 0.1-0.5% of NP-40, (iii) incubated with primary antibodies at 4° C.: anti-RPA194 (1:1000-1:1250 dilution, sc-48385, Santa Cruz Biotechnology) and anti-gH2Ax (1:5000 dilution, 81299, Abcam or 1:4000, JBW302, Millipore) (iv) incubated for 1 h at RT with Hoechst (1:5000 dilution, H3570, ThermoFisher) and secondary antibodies: anti-mouse-AlexaFluor488 (1:2000 dilution, A11001, ThermoFisher) and anti-rabbit-AlexaFluor647 (1:2000 dilution, A21443, ThermoFisher) or goat anti-mouse AlexaFluor-594 (1:1000 dilution). Images were acquired on an Operetta CLS High-Content Analysis System (PerkinElmer) (40× objective; 9 fields/well) and processed using the Columbus Image Analysis System (PerkinElmer) or by using Molecular Devices ImageXpress Micro XLS High Content Imager and MetaXpress high-content acquisition and analysis software.
In the table below, (+) is associated with a pIC50 5.02 to 5.8; (++) with pIC50 5.8 to 6.3; and plus sing (+++) with a pIC50 above 6.3.

Activity Range (pIC50) | SMILES
++ ((++) with pIC50 5.8 to 6.3) | O=C(NCC1CCCC(CO)N1)c1cccn2c(=O)c3cc4ccccc4cc3nc12 (centres unmarked) [Compound 101, N-((6-(hydroxymethyl)piperidin-2-yl)methyl)-12-oxo-12H-benzo[g]pyrido[2,1-b]quinazoline-4-carboxamide hydrochloride]
++ ((++) with pIC50 5.8 to 6.3) | O=C(NCC1CCCN1)c1cccn2c(=O)c3cc4ccccc4cc3nc12 (centres unmarked) [Compound 102, 12-oxo-N-(pyrrolidin-2-ylmethyl)-12H-benzo[g]pyrido[2,1-b]quinazoline-4-carboxamide trifluoroacetate]
++ ((++) with pIC50 5.8 to 6.3) | CC(NC(=O)c1cccn2c(=O)c3cc4ccccc4cc3nc12)C1CCCCN1 (centres unmarked) [Compound 103, 12-oxo-N-(1-(piperidin-2-yl)ethyl)-12H-benzo[g]pyrido[2,1-b]quinazoline-4-carboxamide hydrochloride]
++ ((++) with pIC50 5.8 to 6.3) | O=C(NCC1CCCCN1)c1cccn2c(=O)c3cc4ccccc4cc3nc12 (centres unmarked) [Compound 104, 12-oxo-N-(piperidin-2-ylmethyl)-12H-benzo[g]pyrido[2,1-b]quinazoline-4-carboxamide hydrochloride]
++ ((++) with pIC50 5.8 to 6.3) | CCN1CCCCC1CNC(=O)c1cccn2c(=O)c3cc4ccccc4cc3nc12 (centres unmarked) [Compound 105, N-((1-ethylpiperidin-2-yl)methyl)-12-oxo-12H-benzo[g]pyrido[2,1-b]quinazoline-4-carboxamide hydrochloride]
++ ((++) with pIC50 5.8 to 6.3) | O=C(NCCN1CC[C@H](O)C1)c1cccn2c(=O)c3cc4ccccc4cc3nc12 [Compound 109, (S)-N-(2-(3-hydroxypyrrolidin-1-yl)ethyl)-12-oxo-12H-benzo[g]pyrido[2,1-b]quinazoline-4-carboxamide hydrochloride]
+++ ((+++) with a pIC50 above 6.3) | O=C(NCCN1CC[C@@H](O)C1)c1cccn2c(=O)c3cc4ccccc4cc3nc12 [Compound 110, (R)-N-(2-(3-hydroxypyrrolidin-1-yl)ethyl)-12-oxo-12H-benzo[g]pyrido[2,1-b]quinazoline-4-carboxamide hydrochloride]
++ ((++) with pIC50 5.8 to 6.3) | O=C(NCCN1CCC(O)(O)CC1)c1cccn2c(=O)c3cc4ccccc4cc3nc12 [Compound 113, N-(2-(4,4-dihydroxypiperidin-1-yl)ethyl)-12-oxo-12H-benzo[g]pyrido[2,1-b]quinazoline-4-carboxamide hydrochloride]
++ ((++) with pIC50 5.8 to 6.3) | O=C(NCCN1CCC(F)CC1)c1cccn2c(=O)c3cc4ccccc4cc3nc12 [Compound 116, N-(2-(4-fluoropiperidin-1-yl)ethyl)-12-oxo-12H-benzo[g]pyrido[2,1-b]quinazoline-4 carboxamide hydrochloride]

SMILES | Activity Range (pIC50)
CC(C)N1CCCCC1CNC(=O)c1cccn2c(=O)c3cc4ccccc4cc3nc12 (centres unmarked) [Compound 106, N-((1-isopropylpiperidin-2-yl)methyl)-12-oxo-12H-benzo[g]pyrido[2,1-b]quinazoline-4-carboxamide hydrochloride] | + ((+) is associated with a pIC50 5.02 to 5.8)
CN1CCCC1CNC(=O)c1cccn2c(=O)c3cc4ccccc4cc3nc12 (centres unmarked) [Compound 107, N-((1-methylpyrrolidin-2-yl)methyl)-12-oxo-12H-benzo[g]pyrido[2,1-b]quinazoline-4-carboxamide hydrochloride] | + ((+) is associated with a pIC50 5.02 to 5.8)
CN1CCOCC1CNC(=O)c1cccn2c(=O)c3cc4ccccc4cc3nc12 (centres unmarked) [Compound 108, N-((4-methylmorpholin-3-yl)methyl)-12-oxo-12H-benzo[g]pyrido[2,1-b]quinazoline-4-carboxamide hydrochloride] | + ((+) is associated with a pIC50 5.02 to 5.8)
N#CC1CCN(CCNC(=O)c2cccn3c(=O)c4cc5ccccc5cc4nc23)CC1 [Compound 111, N-(2-(4-cyanopiperidine-1-yl)ethyl)-12-oxo-12H-benzo[g]pyrido[2,1-b]quinazoline-4-carboxamide hydrochloride] | + ((+) is associated with a pIC50 5.02 to 5.8)
O=C(NCCN1CCSCC1)c1cccn2c(=O)c3cc4ccccc4cc3nc12 [Compound 112, 12-oxo-N-(2-thiomorpholinoethyl)-12H-benzo[g]pyrido[2,1-b]quinazoline-4-carboxamide hydrochloride] | + ((+) is associated with a pIC50 5.02 to 5.8)
CN(CCC#N)CCNC(=O)c1cccn2c(=O)c3cc4ccccc4cc3nc12 [Compound 114, N-(2-((2-cyanoethyl)(methyl)amino)ethyl)-12-oxo-12H-benzo[g]pyrido[2,1-b]quinazoline-4-carboxamide hydrochloride] | + ((+) is associated with a pIC50 5.02 to 5.8)
COC(=O)N1CCN(CCNC(=O)c2cccn3c(=O)c4cc5ccccc5cc4nc23)CC1 [Compound 115, methyl 4-(2-(12-oxo-12H-benzo[g]pyrido[2,1-b]quinazoline-4-carboxamido)ethyl)piperazine-1-carboxylate hydrochloride] | + ((+) is associated with a pIC50 5.02 to 5.8)
O=C(NCCN1CCC(F)C1)c1cccn2c(=O)c3cc4ccccc4cc3nc12 (centres unmarked) [Compound 117, N-(2-(3-fluoropyrrolidin-1-yl)ethyl)-12-oxo-12H-benzo[g]pyrido[2,1-b]quinazoline-4-carboxamide hydrochloride] | + ((+) is associated with a pIC50 5.02 to 5.8)
